According to patent publication US9725432B2, “Pyrimidine derivatives for the treatment of bacterial diseases” (JANSSEN R&D IRELAND, priority 2012, dated 2017):
Converted amounts (≈) assume the structure as drawn.

Tests used:
Staphylococcus aureus = assay: Antibacterial susceptibility testing: IC90 determination (broth microdilution, resazurin fluorescence); format: cell-based; details: 90% inhibitory concentration for bacterial growth, Mueller Hinton broth, 35° C., 16-20 hours, strain not given
Procedure: Preparation of Bacterial Suspensions for Susceptibility Testing
The following bacteria were used: Staphylococcus aureus ATCC 29213, methicillin-resistant Staphylococcus aureus (MRSA) ATCC 700788 and Escherichia coli ATCC 35218. The bacteria used in this study were grown overnight in flasks containing 100 ml Mueller-Hinton broth (Difco cat. nr. 0757-17) in sterile de-ionized water, with shaking, at 37° C. Stocks were store at −70° C. until use.
Bacteria were incubated on a tryptic soy agar plate containing 5% sheep blood (Becton Dickinson cat. nr. 254053) for 18-24 hours at 35° C. in aerobic conditions (first passage). For the second passage, fresh Mueller-Hinton broth is inoculated with 5-10 colonies and grown overnight at 35° C. until turbidity (reaching log-phase) in aerobic conditions is reached. The bacterial suspension is then adjusted to 0.5 McFarland density and further diluted 1:100 in Mueller Hinton broth medium. This is used as inoculum.
Antibacterial Susceptibility Testing: IC90 Determination
MIC assays were performed by the broth microdilution method in a 96-well format (flat-bottom microtitre plates) with a final volume of 0.1 ml Mueller Hinton broth containing two-fold serial dilutions of compounds and inoculated with 5×10^5 CFU/ml of bacteria (standard inoculum size according to CLSI guidelines). Inhibitors are typically varied over the range of 63 to 0.49 μM. The final DMSO concentration in the assay was 1.25% (maximum tolerable DMSO concentration=6%). In the assays where the effect of human serum on the activity of the compounds against S. aureus was tested, human serum was added at a final concentration of 10%. The plates were incubated at 35° C. for 16-20 hours. At the end of incubation the bacterial growth was quantified fluorometrically. For this, resazurin was added to all wells and the plates were re-incubated. The incubation time is dependent on the type of bacteria. A change in color from blue to pink indicated the growth of bacteria. The fluorescence was read in computer-controlled fluorometer (Fluoroskan Ascent FL, Labsystems) at an excitation wavelength 540 nm and an emission wavelength of 590 nm. The % growth inhibition achieved by the compounds was calculated according to standard methods. The IC90 (expressed in μg/ml) was defined as the 90% inhibitory concentration for bacterial growth. A panel of reference compounds were simultaneously tested for QC approval.

Cytotoxicity MTT assay = format: cell-based; details: human, HelaM cells, concentration that causes 50% reduction in cell viability
Procedure: Cytotoxicity of the compounds was evaluated using the MTT assay. Human HelaM cells grown in 96-well plates were exposed to serial dilutions of the tested compounds (final volume of 0.2 ml) and incubated for 72 hours at 37° C. and 5% CO2 Inhibitors are typically varied over the range of 25 to 0.8 μM. The final DMSO concentration in the assay is 0.5%. MTT (3-(4,5-Dimethylthiazol-2-yl)-2,5-diphenyltetrazolium bromide, a tetrazole) was added and reduced to purple formazan only in living cells. Solubilization of the formazan crystals was achieved by adding 100 μl 2-propanol. Cell viability was determined by measuring the absorbance of the reduced formazan, giving a purple color, at 540 nm and 690 nm. The absorbance measured at 690 nm was automatically subtracted from the absorbance at 540 nm, to eliminate the effects of non-specific absorption. The percent cytotoxicity achieved by the compounds was calculated according to standard methods. Cytotoxicity is reported as CC50, the concentration that causes a 50% reduction in cell viability.

| IC90 (Staphylococcus aureus) | melting point | SMILES | CC50 at 72 h (Cytotoxicity MTT assay) |
| --- | --- | --- | --- |
| 0.64 µg/mL (≈ 1.51 µM) |  | COc1cccc(-c2cnc(-c3ccncc3)nc2C2CCN(CC(C)(F)F)CC2)c1 [Compound 70] | 6.7 µg/mL (≈ 15.8 µM) |
| 5.49 µg/mL (≈ 13.6 µM) | 105 to 106 °C | COc1cccc(-c2cnc(-c3ccncc3)nc2C2CCN(CC(C)C)CC2)c1 [Compound 11] | > 10.1 µg/mL |
| 5.47 µg/mL (≈ 14.3 µM) |  | COc1ccc(-c2cnc(N(C)C)nc2C2CCN(CC(C)(C)C)CC2)cc1 [Compound 53] | 7.5 µg/mL (≈ 19.6 µM) |
| 1.05 µg/mL (≈ 2.52 µM) | 118 °C | COc1cccc(-c2cnc(-c3ccncc3)nc2C2CCN(CC(C)(C)C)CC2)c1 [Compound 6] | > 10.5 µg/mL |
| 0.39 µg/mL (≈ 0.91 µM) |  | COc1cccc(-c2cnc(-c3ccncc3)nc2C2CCN(CC(F)(F)F)CC2)c1 [Compound 55] | 6.3 µg/mL (≈ 14.7 µM) |
| 1.68 µg/mL (≈ 4.03 µM) | 222 to 224 °C | COc1cccc(-c2cnc(-c3cccnc3)nc2C2CCN(CC(C)(C)C)CC2)c1 [Compound 24] | > 11.4 µg/mL |
| 3.04 µg/mL (≈ 7.08 µM) | 140 to 142 °C | CN(C)c1cccc(-c2cnc(-c3ccncc3)nc2C2CCN(CC(C)(C)C)CC2)c1 [Compound 37] | 9.2 µg/mL (≈ 21.4 µM) |
| 1.29 µg/mL (≈ 3.13 µM) | 155 °C | CC(C)(C)CN1CCC(c2nc(-c3ccncc3)ncc2-c2cccc(C#N)c2)CC1 [Compound 54] | > 10.3 µg/mL |
| 0.81 µg/mL (≈ 1.83 µM) | 144 to 145 °C | COc1ccc(-c2ncc(-c3cccc(C#N)c3)c(C3CCN(CC(C)(C)C)CC3)n2)cn1 [Compound 67] | > 11.1 µg/mL |
| 2.74 µg/mL (≈ 7.32 µM) | 125 to 126 °C | CC(C)(C)CN1CCC(c2nc(C3CC3)ncc2-c2cccc(C#N)c2)CC1 [Compound 63] | > 9.4 µg/mL |
| 5.04 µg/mL (≈ 12.6 µM) | 170 to 171 °C | Cc1ccc(-c2cnc(-c3ccncc3)nc2C2CCN(CC(C)(C)C)CC2)cc1 [Compound 38] | > 4 µg/mL |
| 13.4 µg/mL (≈ 36.3 µM) |  | CN(C)c1ncc(-c2ccccc2F)c(C2CCN(CC(C)(C)C)CC2)n1 [Compound 51] | 7.8 µg/mL (≈ 21.1 µM) |
| 9.61 µg/mL (≈ 24 µM) | 208 °C | Cc1ccccc1-c1cnc(-c2ccncc2)nc1C1CCN(CC(C)(C)C)CC1 [Compound 50] | > 4 µg/mL |
| 2.98 µg/mL (≈ 7.15 µM) | 154 to 156 °C | COc1ccc(-c2cnc(-c3ccncc3)nc2C2CCN(CC(C)(C)C)CC2)cc1 [Compound 36] | > 10.5 µg/mL |
| 0.13 µg/mL (≈ 0.298 µM) | 247 to 249 °C | CC(C)(C)CN1CCC(c2nc(-c3ccc(C#N)cc3)ncc2-c2cccc(C#N)c2)CC1 [Compound 65] | > 4.4 µg/mL |
| 3.02 µg/mL (≈ 7.34 µM) | 148 to 150 °C | CC(C)(C)CN1CCC(c2nc(-c3cccnc3)ncc2-c2cccc(C#N)c2)CC1 [Compound 69] | > 10.3 µg/mL |
| 13.7 µg/mL (≈ 33.1 µM) |  | C/C=C(\C)CN1CCC(c2nc(-c3ccncc3)ncc2-c2cccc(OC)c2)CC1 [Compound 2] |  |
| < 0.22 µg/mL |  | COc1cccc(-c2cnc(-c3ccc(F)cc3)nc2C2CCN(CC(F)(F)F)CC2)c1 [Compound 71] |  |
| 1.28 µg/mL (≈ 3.31 µM) |  | CN(C)c1ncc(-c2cccc(Cl)c2)c(C2CCN(CC(C)(C)C)CC2)n1 [Compound 52] | 6.7 µg/mL (≈ 17.3 µM) |

The remaining lines, values behind:

| SMILES | IC90 (Staphylococcus aureus) | melting point | CC50 at 72 h (Cytotoxicity MTT assay) |
| --- | --- | --- | --- |
| COc1cccc(-c2cnc(-c3ccncc3)nc2C2CCN(Cc3ccsc3)CC2)c1 [Compound 4] | 12.9 µg/mL (≈ 29.2 µM) | 135 °C | > 11.1 µg/mL |
| COc1cccc(-c2cnc(-c3ccncc3)nc2C2CCN(CC(F)F)CC2)c1 [Compound 56] | 1.49 µg/mL (≈ 3.63 µM) | 123 °C | > 10.3 µg/mL |
| Cc1cccc(-c2cnc(-c3ccncc3)nc2C2CCN(Cc3cccc(F)c3)CC2)c1 [Compound 14] | 9.16 µg/mL (≈ 20.9 µM) | 195 to 196 °C | > 11 µg/mL |
| COc1cccc(-c2cnc(-c3ccncc3)nc2N2CCC(c3ccccc3)CC2)c1 [Compound 26] | 7.51 µg/mL (≈ 17.8 µM) | 157 to 159 °C | 5.7 µg/mL (≈ 13.5 µM) |
| COc1cccc(-c2cnc(-c3ccncc3)nc2C2CCN(Cc3ccccc3C(F)(F)F)CC2)c1 [Compound 46] | 4.1 µg/mL (≈ 8.13 µM) | 144 °C | 4.2 µg/mL (≈ 8.32 µM) |
| Oc1ccccc1CN1CCC(c2nc(-c3cccnc3)ncc2-c2ccccc2)CC1 [Compound 7] | 14.3 µg/mL (≈ 33.9 µM) |  |  |
| COc1cccc(-c2cnc(-c3ccncc3)nc2C2CCN(C(=O)C(C)Oc3ccccc3)CC2)c1 (stereo not shown) [Compound 20] | 7.15 µg/mL (≈ 14.5 µM) |  | 8.1 µg/mL (≈ 16.4 µM) |
| Cc1cccc(-c2cnc(-c3ccncc3)nc2C2CCN(Cc3ccccc3O)CC2)c1 [Compound 8] | 5.5 µg/mL (≈ 12.6 µM) | 149 to 151 °C | > 4.4 µg/mL |
| COc1cccc(-c2cnc(-c3ccncc3)nc2C2CCN(Cc3ccc(Cl)cc3)CC2)c1 [Compound 44] | 2.23 µg/mL (≈ 4.73 µM) | 131 °C | 7 µg/mL (≈ 14.9 µM) |
| CC1(CN2CCC(c3nc(-c4ccncc4)ncc3-c3cccc(C#N)c3)CC2)COC1 [Compound 72] | 25.9 µg/mL (≈ 61 µM) |  |  |
| COc1cccc(-c2cnc(-c3ccncc3)nc2C2CCN(C(=O)C(C)(C)C)CC2)c1 [Compound 25] | 3.27 µg/mL (≈ 7.59 µM) | 165 °C | > 10.8 µg/mL |
| COc1cccc(-c2cnc(-c3ccncc3)nc2C2CCN(Cc3ccc(F)cc3F)CC2)c1 [Compound 32] | 3.27 µg/mL (≈ 6.92 µM) | 138 °C | 5.5 µg/mL (≈ 11.6 µM) |
| COc1cccc(-c2cnc(-c3ccncc3)nc2C2CCN(Cc3cc(Cl)ccc3O)CC2)c1 [Compound 5] | 2.1 µg/mL (≈ 4.31 µM) | 227 to 228 °C | 6.3 µg/mL (≈ 12.9 µM) |
| Cc1cccc(-c2cnc(-c3ccncc3)nc2C2CCN(Cc3cc(Cl)ccc3O)CC2)c1 [Compound 13] | 1.71 µg/mL (≈ 3.63 µM) | 180 to 181 °C | 5.2 µg/mL (≈ 11 µM) |
| COc1cccc(-c2cnc(-c3ccncc3)nc2C2CCN(Cc3cccs3)CC2)c1 [Compound 19] | 5.57 µg/mL (≈ 12.6 µM) | 130 °C | > 11.1 µg/mL |
| CC(C)(C)CN1CCCC(c2nc(-c3ccncc3)ncc2-c2cccc(C#N)c2)C1 (stereo not shown) [Compound 61] | > 25.9 µg/mL |  | > 10.3 µg/mL |
| COc1cccc(-c2cnc(-c3ccncc3)nc2C2CCN(Cc3ccc(Cl)cc3O)CC2)c1 [Compound 9] | 0.97 µg/mL (≈ 1.99 µM) | 119 to 123 °C | 5.9 µg/mL (≈ 12.1 µM) |
| COc1cccc(-c2cnc(-c3ccncc3)nc2N2CCN(CC(C)(C)C)CC2)c1 [Compound 21] | 0.39 µg/mL (≈ 0.934 µM) | 117 to 120 °C | 5.9 µg/mL (≈ 14.1 µM) |
| COc1cccc(-c2cnc(-c3ccncc3)nc2C2CCN(Cc3cc(F)cc(F)c3)CC2)c1 [Compound 48] | 3.16 µg/mL (≈ 6.69 µM) | 181 °C | 2.2 µg/mL (≈ 4.66 µM) |
| COc1cccc(-c2cnc(-c3ccncc3)nc2C2CCN(Cc3ccccc3)CC2)c1 [Compound 16] | 6.92 µg/mL (≈ 15.9 µM) | 174 °C | > 11 µg/mL |
| COc1cccc(-c2cnc(-c3ccncc3)nc2C2CCN(Cc3cccc(C(F)(F)F)c3)CC2)c1 [Compound 28] | 5.28 µg/mL (≈ 10.5 µM) | 156 °C | 4.7 µg/mL (≈ 9.32 µM) |
| COc1cccc(-c2cnc(-c3cccnc3)nc2C2CCN(C(=O)C(C)Oc3ccccc3)CC2)c1 (stereo not shown) [Compound 27] | 9.1 µg/mL (≈ 18.4 µM) | 138 to 140 °C | 7.1 µg/mL (≈ 14.4 µM) |
| COc1cccc(-c2cnc(-c3ccncc3)nc2C2CCN(Cc3cccc(Cl)c3)CC2)c1 [Compound 45] | 3.49 µg/mL (≈ 7.41 µM) | 133 °C | 4.9 µg/mL (≈ 10.4 µM) |
| N#Cc1cccc(-c2cnc(-c3ccncc3)nc2C2CCCN(CC(F)(F)F)C2)c1 (stereo not shown) [Compound 59] | > 26.7 µg/mL | 163 to 164 °C | > 10.6 µg/mL |
| COc1cccc(-c2cnc(-c3ccncc3)nc2C2CCN(Cc3cccc(C)c3)CC2)c1 [Compound 33] | 13.2 µg/mL (≈ 29.2 µM) | 160 °C | 7.6 µg/mL (≈ 16.9 µM) |
| COc1cccc(-c2cnc(-c3ccncc3)nc2C2CCN(Cc3sccc3C)CC2)c1 [Compound 1] | 8.5 µg/mL (≈ 18.6 µM) |  |  |
